In publication PMC5584945, “Evaluation of robenidine analog NCL195 as a novel broad-spectrum antibacterial agent” (PLoS ONE, 2017):
Values after ≈ are worked out from the molar mass of the structure shown.

How the values were obtained:
[1] = system: vancomycin-resistant enterococci (VRE); experiment: MIC, broth micro-dilution (CLSI); type: cell-based, enterococci (porcine isolates)
[2] = system: Enterococcus faecalis ATCC 29212; experiment: MIC, broth micro-dilution (CLSI), control strain; type: cell-based; conditions: ATCC29212, absence of FBS
Method: MICs for NCL812 and its analogs (serial two-fold dilutions commencing at 128 μg/ml) were determined (in duplicate) in round bottom 96-well microtitre trays (Sarstedt 82.1582.001), using the broth micro-dilution method recommended by the Clinical and Laboratory Standards Institute (CLSI). […] MIC50, MIC90 and MIC range for NCL812, NCL195 and NCL219 were calculated against each S. pneumoniae, S. aureus or VRE isolate. To assess the potential activity of NCL195 against Gram-negative bacteria, MICs against Acinetobacter spp, E. coli, K. pneumoniae, P. aeruginosa, Proteus spp and Neisseria meningitidis were performed in the presence or absence of 0.08 mM-20 mM EDTA in a standard checkerboard assay.

S. aureus Xen29 = experiment: Time-dependent killing assay; type: cell-based, Staphylococcus aureus
Method: Time kill assays were performed (in duplicate) essentially as described previously with slight modifications. Briefly, a few colonies of luminescent S. pneumoniae strain D39LUX or luminescent S. aureus ATCC 12600 (Xen29) from an overnight HBA were emulsified in normal saline and adjusted to A600 nm = 0.10 (equivalent to approx. 5 × 10^7 c.f.u. per ml) and the bacterial suspension further diluted 1:20 in saline. […] The compounds were serially diluted in 100% DMSO at 100× the final desired concentration and 100 μl of appropriate concentrations added to each 10 ml preparation. Duplicate cultures were incubated at 37°C (+ 5% CO2 for S. pneumoniae D39), with samples withdrawn at 0, 0.5, 1, 2, 4, 6, 8 and 24 h, serially diluted 10-fold and plated on HBA overnight at 37°C (+ 5% CO2 for S. pneumoniae D39) for bacterial enumeration.

[3] = Enterococcus, VRE, S3 Table isolates, absence of FBS

CC1(C)S[C@@H]2[C@H](NC(=O)[C@H](N)c3ccccc3)C(=O)N2[C@H]1C(=O)O [Ampicillin]
MIC90 ([1]; Enterococcus, VRE, 20 isolates): 2 µg/mL (≈ 5.72 µM) | MIC50 [1, 3]: 1 µg/mL (≈ 2.86 µM) | MIC90 [1, 3]: 2 µg/mL (≈ 5.72 µM) | MIC ([1]; Enterococcus, VRE, VRE 1 (49 FR), absence of FBS): 2 µg/mL (≈ 5.72 µM) | MIC ([1]; Enterococcus, VRE, VRE 2 (53 FR), absence of FBS): 1 µg/mL (≈ 2.86 µM) | MIC ([1]; Enterococcus, VRE, VRE 3 (55 FR), absence of FBS): 1 µg/mL (≈ 2.86 µM) | MIC ([1]; Enterococcus, VRE, VRE 4 (57 FR), absence of FBS): 1 µg/mL (≈ 2.86 µM) | MIC ([1]; Enterococcus, VRE, VRE5 (58 FR), absence of FBS): 1 µg/mL (≈ 2.86 µM) | MIC ([1]; Enterococcus, VRE, VRE 6 (59 FR), absence of FBS): 2 µg/mL (≈ 5.72 µM) | MIC ([1]; Enterococcus, VRE, VRE 7 (270 G), absence of FBS): 0.25 µg/mL (≈ 0.715 µM) | MIC ([1]; Enterococcus, VRE, VRE 8 (277 G), absence of FBS): 2 µg/mL (≈ 5.72 µM) | MIC ([1]; Enterococcus, VRE, VRE 9 (61 FR), absence of FBS): 1 µg/mL (≈ 2.86 µM) | MIC ([1]; Enterococcus, VRE, VRE 10 (62 FR), absence of FBS): 2 µg/mL (≈ 5.72 µM) | MIC ([1]; Enterococcus, VRE, VRE 11 (284 G), absence of FBS): 2 µg/mL (≈ 5.72 µM) | MIC ([1]; Enterococcus, VRE, VRE 12 (290 G), absence of FBS): 1 µg/mL (≈ 2.86 µM) | MIC ([1]; Enterococcus, VRE, VRE 13 (251 G), absence of FBS): 1 µg/mL (≈ 2.86 µM) | MIC ([1]; Enterococcus, VRE, VRE 14 (252 G), absence of FBS): 0.5 µg/mL (≈ 1.43 µM) | MIC ([1]; Enterococcus, VRE, VRE 15 (63 FR), absence of FBS): 1 µg/mL (≈ 2.86 µM) | MIC ([1]; Enterococcus, VRE, VRE 16 (60 FR), absence of FBS): 1 µg/mL (≈ 2.86 µM) | MIC ([1]; Enterococcus, VRE, VRE 17 (45 FR), absence of FBS): 2 µg/mL (≈ 5.72 µM) | MIC ([1]; Enterococcus, VRE, VRE 18 (69 W), absence of FBS): 1 µg/mL (≈ 2.86 µM) | MIC ([1]; Enterococcus, VRE, VRE 19 (70 W), absence of FBS): 1 µg/mL (≈ 2.86 µM) | MIC ([1]; Enterococcus, VRE, VRE 20 (78 W), absence of FBS): 1 µg/mL (≈ 2.86 µM) | MIC range ([1]; S3 Table isolates, absence of FBS): 0.25 to 2 µg/mL | MIC [2]: 2 µg/mL | Time to clear all Xen29 (S. aureus Xen29; 4× MIC): 6 h | Regrowth after 24 h (S. aureus Xen29; at the concentrations tested (2× and 4× MIC)): some S. aureus regrowth was observed
